From patent publication US7098199B2 (Sterix Limited, priority 1991, dated 2006)
Read-outs that look alike come from different tables or passages of the source.

What was measured:
[1] = tested on: uterine growth; experiment: In vivo oestrogenicity: uterine weight in ovariectomised rats (NOMATE); set-up: species or system rat; conditions: 0.1 mg/Kg/day for five days orally
Method: (§1) Using 17-deoxy oestrone-3-O-sulphamate (NOMATE, FIG. 5 Formula IV where X=—OSO2NH2, Y=—CH2— and R1 and R2=H, and FIG. 13) as a representative example, the ability of this compound to inhibit oestrone sulphatase activity in vivo was examined in rats. The oestrogenicity of this compound was examined in ovariectomised rats. In this model compounds which are oestrogenic stimulate uterine growth.
NOMATE (0.1 mg/Kg/day for five days) was administered orally to rats with another group of animals receiving vehicle only (propylene glycol). At the end of the study uteri were obtained and weighed with the results being expressed as uterine weight/whole body weight×100.

[2] = biological target: T1, oestrone sulphatase (Rattus norvegicus, UniProt P15589); experiment: Inhibition of oestrone sulphatase activity in vivo in rat liver (NOMATE); conditions: 0.1 mg/Kg/day for five days orally; rat liver tissue; compared with untreated controls
T1 construct: samples of liver tissue were obtained; from tissue; host or cells: rat liver
T1 sequence (P15589 20-577): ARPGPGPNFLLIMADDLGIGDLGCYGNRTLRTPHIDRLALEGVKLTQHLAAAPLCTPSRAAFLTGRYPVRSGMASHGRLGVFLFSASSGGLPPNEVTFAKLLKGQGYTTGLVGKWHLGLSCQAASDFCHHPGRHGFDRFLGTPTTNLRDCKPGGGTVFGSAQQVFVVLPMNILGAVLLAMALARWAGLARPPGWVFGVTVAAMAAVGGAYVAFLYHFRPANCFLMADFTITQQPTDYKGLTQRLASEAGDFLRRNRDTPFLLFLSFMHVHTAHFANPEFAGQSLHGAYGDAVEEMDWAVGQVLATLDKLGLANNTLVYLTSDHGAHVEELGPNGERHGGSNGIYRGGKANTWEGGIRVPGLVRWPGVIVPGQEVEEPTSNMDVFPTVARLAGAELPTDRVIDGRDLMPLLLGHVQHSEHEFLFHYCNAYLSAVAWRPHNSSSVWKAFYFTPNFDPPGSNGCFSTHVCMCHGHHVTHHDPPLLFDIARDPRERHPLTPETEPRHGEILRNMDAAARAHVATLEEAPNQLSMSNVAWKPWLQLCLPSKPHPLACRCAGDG
Method: as §1
NOMATE (0.1 mg/Kg/day for five days) was administered orally to rats with another group of animals receiving vehicle only (propylene glycol). At the end of the study samples of liver tissue were obtained and oestrone sulphatase activity assayed using ^3H oestrone sulphate as the substrate as previously described.

[3] = biological target: T2, oestrone sulphatase (Homo sapiens, UniProt P08842)
T2 sequence (P08842 22-583): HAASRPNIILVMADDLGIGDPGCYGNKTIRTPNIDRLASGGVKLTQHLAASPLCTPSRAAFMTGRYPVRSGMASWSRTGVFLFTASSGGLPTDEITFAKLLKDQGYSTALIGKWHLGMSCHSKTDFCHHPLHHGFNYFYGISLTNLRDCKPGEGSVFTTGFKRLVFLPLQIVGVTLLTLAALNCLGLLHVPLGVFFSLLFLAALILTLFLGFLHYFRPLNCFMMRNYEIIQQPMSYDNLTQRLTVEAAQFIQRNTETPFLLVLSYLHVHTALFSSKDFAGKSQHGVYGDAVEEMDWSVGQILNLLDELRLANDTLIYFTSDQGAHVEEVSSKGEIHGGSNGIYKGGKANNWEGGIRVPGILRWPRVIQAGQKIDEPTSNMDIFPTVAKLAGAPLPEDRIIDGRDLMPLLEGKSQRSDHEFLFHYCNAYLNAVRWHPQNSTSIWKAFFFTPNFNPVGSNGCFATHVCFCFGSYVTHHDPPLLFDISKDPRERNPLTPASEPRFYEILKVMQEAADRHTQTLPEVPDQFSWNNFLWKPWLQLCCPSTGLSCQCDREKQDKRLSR

[4] = Chemical and thermal stability of compound 12; format: physicochemical; conditions: sodium hydroxide in methanol
From the text: Two equivalents of sodium hydroxide are required for consuming excess sulphur trioxide-pyridine complex to yield the neutral sodium sulphate. Insufficient amount of sodium hydroxide will therefore lead to the formation of sodium hydrogen sulphate which is acidic.

[5] = biological target: T3, E1-STS (Homo sapiens, UniProt P08842); experiment: Hydrolysis of coumarin sulphate (12) by placental microsomes, TLC; format: biochemical
T3 construct: from tissue; host or cells: placental microsomes (100,000 g fraction)
T3 sequence (P08842 22-583): T2 sequence (P08842 22-583)

[6] = biological target: T4, oestrone sulphatase (E1-STS) (Homo sapiens, UniProt P08842); format: cell-based; conditions: intact MCF-7 cells, 20 h
T4 sequence (P08842 22-583): T2 sequence (P08842 22-583)

[7] = biological target: T5, E1-STS (Rattus norvegicus, UniProt P15589); experiment: E1-STS activity in uteri of treated ovariectomised rats; format: in vivo; conditions: 1 mg/kg subcutaneously for 5 days, compared with untreated animals
T5 construct: The E1-STS activity in the uteri obtained from these animals; from tissue; host or cells: rat uterus
T5 sequence (P15589 20-577): T1 sequence (P15589 20-577)

[8] = tested on: uterine weight; experiment: Oestrogenic activity: uterine weight in ovariectomised rats (compound 14); format: in vivo, rat; conditions: 1 mg/kg subcutaneously for 5 days
[9] = biological target: T6, sulphatase (Rattus norvegicus, UniProt P15589); experiment: Sulphatase activity in white blood cells of rats after oral dosing; format: in vivo; conditions: for % Inhibition MD / % Inhibition SD: white blood cells; for % Inhibition SD: single dose
T6 construct: from tissue; host or cells: rat white blood cells
T6 sequence (P15589 20-577): T1 sequence (P15589 20-577)
Method: Inhibition of sulphatase activity was assessed in white blood cells (wbcs) that were collected after a SD or MD. Sulphatase activity was assayed using labelled oestrone sulphate as the substrate and measuring the release of oestrone.

[10] = biological target: T7, Steroid sulphatase (Steryl Sulphatase EC3.1.6.2) (Homo sapiens, UniProt P08842); experiment: Steroid sulphatase activity in MCF-7 cells pre-incubated with inhibitor and washed; format: cell-based; conditions: pre-treatment 2 hours with 0.1 μM, cells washed 3 times; mean ± 1 S.D., n = 3
T7 construct: endogenous in cells; host or cells: MCF-7 human breast cancer cells
T7 sequence (P08842 22-583): T2 sequence (P08842 22-583)

[11] = biological target: T8, Steroid sulphatase (Homo sapiens, UniProt P08842); experiment: biochemical
T8 sequence (P08842 22-583): T2 sequence (P08842 22-583)

[12] = biological target: T7, Steroid sulphatase (Steryl Sulphatase EC3.1.6.2); experiment: Steroid sulphatase activity in intact MCF-7 cells; format: cell-based; conditions: for Steroid Sulphatase Activity: mean ± 1 S.D., n = 3
Method: Steroid sulphatase is defined as: Steryl Sulphatase EC3.1.6.2.
Steroid sulphatase activity was measured in vitro using intact MCF-7 human breast cancer cells. This hormone dependent cell line is widely used to study the control of human breast cancer cell growth. […] Cells were maintained in Minimal Essential Medium (MEM) (Flow Laboratories, Irvine, Scotland) containing 20 mM HEPES, 5% foetal bovine serum, 2 mM glutamine, nonessential amino acids and 0.075% sodium bicarbonate. Up to 30 replicate 25 cm^2 tissue culture flasks were seeded with approximately 1×10^5 cells/flask using the above medium. Cells were grown to 80% confluency and medium was changed every third day.
Each batch of experiments included incubations of microsomes prepared from a sulphatase-positive human placenta (positive control) and flasks without cells (to assess apparent non-enzymatic hydrolysis of the substrate). The number of cell nuclei per flask was determined using a Coulter Counter after treating the cell monolayers with Zaponin. One flask in each batch was used to assess cell membrane status and viability using the Trypan Blue exclusion method (Phillips, H. J. (1973) In: Tissue culture and applications,[eds: Kruse, D. F. & Patterson, M. K.]; pp. 406–408; Academic Press, New York).
Unpaired Student's t-test was used to test the statistical significance of results.
An identical experimental protocol to that described in Example 4 was used to generate results for oestrone-3-N,N-diimethylsulphamate except that incubations contained oestrone-3-N,N-dimethylsulphaiate (5 concentrations: 0; 0.001 μM; 0.01 μM; 0.1 μM; 1 μM) in place of oestrone-3-sulphamate.

[13] = biological target: T8, Steroid sulphatase; experiment: Steroid sulphatase activity in placental microsomes; conditions: for Steroid Sulphatase Activity: mean of 2 estimates
[14] = biological target: T9, Steroid sulphatase (Rattus norvegicus, UniProt P15589); experiment: Steroid sulphatase activity in liver microsome preparations from rats treated subcutaneously; format: in vivo; set-up: except that the tissue source was rat liver; from tissue; host or cells: liver of female Wistar rats; conditions: 10 mg/kg/day s.c. for 7 days, rat liver microsomes; for Steroid Sulphatase Activity: mean ± 1 S.D., n = 3
T9 sequence (P15589 20-577): T1 sequence (P15589 20-577)

C[C@@]12CCC[C@H]1[C@@H]1CCc3cc(OS(N)(=O)=O)ccc3[C@H]1CC2 [NOMATE, 17-deoxy oestrone-3-O-sulphamate]
effect on uterine growth (oestrogenicity, in words) [1]: no significant effect on uterine growth
inhibition of oestrone sulphatase activity in vivo [2]: 98%
% Inhibition (Mean) Placental Microsomes ([3]; concentration tested 0.1 mM (so in the source)): 97.2%
% Inhibition (Mean) Placental Microsomes ([3]; concentration tested 1 mM (so in the source)): 99.5%
% Inhibition (Mean) Placental Microsomes ([3]; concentration tested 10 mM (so in the source)): 99.5%
% Inhibition (Mean) Placental Microsomes ([3]; concentration tested 25 mM (so in the source)): 99.7%

Cc1cc(=O)oc2cc(OS(=O)(=O)[O-])ccc12.[Na+] [Compound 12, 7-(Sulphoxy)4-Methylcoumarin. sodium salt, reference compound]
stability in bases and acidic conditions (in words) [4]: stable in bases such as sodium hydroxide in methanol but not in acidic conditions
substrate for E1-STS (in words) ([5]; 100 μg incubated for 1 hour with placental microsomes): is indeed a substrate for the sulphatase

NS(=O)(=O)Oc1ccc2c(C(F)(F)F)cc(=O)oc2c1 [compound 16, 4-(trifluoromethylcoumarin)-7-O-sulphamate]
inhibition of oestrone sulphatase at 10 μM [6]: 71.5%

Cc1cc(=O)oc2cc(OS(N)(=O)=O)ccc12 [compound 14]
inhibition of E1-STS activity in the uteri [7]: 89.4%
uterine weight (oestrogenic activity, in words) [8]: did not result in any significant increase in the uterine weight
% Inhibition MD ([9]; 0.1 mg/kg oral daily for seven days): 65%
% Inhibition SD ([9]; 0.1 mg/kg oral): 72%
% Inhibition MD ([9]; 1.0 mg/kg oral daily for seven days): 85%
% Inhibition SD ([9]; 1.0 mg/kg oral): 85%
% Inhibition MD ([9]; 10.0 mg/kg oral daily for seven days): 89%
% Inhibition SD ([9]; 10.0 mg/kg oral): 96%
oral activity in rats (in words) ([9]; oral, rats): potent oral activity

C[C@]12CC[C@@H]3c4ccc(OS(N)(=O)=O)cc4CC[C@H]3[C@@H]1CCC2=O [Oestrone-3-sulphamate]
Steroid Sulphatase Activity [10]: 1.7 ± 0.2 fmol/20 hr/10^6 cells
IC50 [11]: 70 nM
inhibition at 10 pM ([12]; MCF7, inhibitor 0.01 nM, read-out: % reduction over control (% inhibition)): 17.2%
inhibition at 0.0001 µM ([12]; MCF7, inhibitor 0.1 nM, read-out: % reduction over control (% inhibition)): 60.9%
inhibition at 0.001 µM ([12]; MCF7, inhibitor 1 nM, read-out: % reduction over control (% inhibition)): 95%
inhibition at 0.01 µM ([12]; MCF7, inhibitor 0.01 μM, read-out: % reduction over control (% inhibition)): 98.8%
inhibition at 0.1 µM ([12]; MCF7, inhibitor 0.1 μM, read-out: % reduction over control (% inhibition)): 99.2%
inhibition at 1 µM ([12]; MCF7, inhibitor 1 μM, read-out: % reduction over control (% inhibition)): 99.5%
Steroid Sulphatase Activity ([12]; inhibitor 0.01 pM): 362.3 ± 21.2 fmol/20 hr/10^6 cells
Steroid Sulphatase Activity ([12]; inhibitor 0.1 pM): 330.7 ± 17.8 fmol/20 hr/10^6 cells
Steroid Sulphatase Activity ([12]; inhibitor 1 pM): 321.8 ± 6.2 fmol/20 hr/10^6 cells
Steroid Sulphatase Activity ([12]; inhibitor 0.01 nM): 265.1 ± 11.0 fmol/20 hr/10^6 cells
Steroid Sulphatase Activity ([12]; inhibitor 0.1 nM): 124.8 ± 12.4 fmol/20 hr/10^6 cells
Steroid Sulphatase Activity ([12]; inhibitor 1 nM): 16.49 ± 4.7 fmol/20 hr/10^6 cells
Steroid Sulphatase Activity ([12]; inhibitor 0.01 μM): 3.92 ± 0.4 fmol/20 hr/10^6 cells
Steroid Sulphatase Activity ([12]; inhibitor 0.1 μM): 2.53 ± 1.1 fmol/20 hr/10^6 cells
Steroid Sulphatase Activity ([12]; inhibitor 1 μM): 1.68 ± 0.7 fmol/20 hr/10^6 cells
Steroid Sulphatase Activity ([12]; inhibitor 1 fM): 353.3 ± 39.0 fmol/20 hr/10^6 cells
% reduction over control (% inhibition) ([13]; 0.05 µM): 44.0%
% reduction over control (% inhibition) ([13]; 0.1 μM): 60.2%
% reduction over control (% inhibition) ([13]; 0.2 µM): 81.8%
% reduction over control (% inhibition) ([13]; 0.4 µM): 89.2%
% reduction over control (% inhibition) ([13]; 0.6 µM): 92.0%
% reduction over control (% inhibition) ([13]; 0.8 µM): 93.6%
% reduction over control (% inhibition) ([13]; 1 μM): 93.3%
Steroid Sulphatase Activity ([13]; inhibitor 0.05 μM): 430.4 pmol/hr/0.1 mg protein
Steroid Sulphatase Activity ([13]; inhibitor 0.1 μM): 305.9 pmol/hr/0.1 mg protein
Steroid Sulphatase Activity ([13]; inhibitor 0.2 μM): 140.0 pmol/hr/0.1 mg protein
Steroid Sulphatase Activity ([13]; inhibitor 0.4 μM): 83.3 pmol/hr/0.1 mg protein
Steroid Sulphatase Activity ([13]; inhibitor 0.6 μM): 61.8 pmol/hr/0.1 mg protein
Steroid Sulphatase Activity ([13]; inhibitor 0.8 μM): 49.2 pmol/hr/0.1 mg protein
Steroid Sulphatase Activity ([13]; inhibitor 1.0 μM): 51.6 pmol/hr/0.1 mg protein
% reduction over control ([14]; assay substrate DHA-S): 94.2%
Steroid Sulphatase Activity ([14]; assay substrate DHA-S): 0.1 ± 0.01 nmol/30 min/200 mg protein
% reduction over control ([14]; assay substrate E1-S): 98.4%
Steroid Sulphatase Activity ([14]; assay substrate E1-S): 0.34 ± 0.1 nmol/30 min/200 mg protein
effect on hydrolysis of compound (12) by E1-STS (in words) ([5]; EMATE 10 μM): reduced the hydrolysis of compound (12) by E1-STS
